The results in this text go back to patent US20090320718A1, “FLUOROSURFACTANTS” (priority 2006, published 2009).

The data set in a line: Determination of the surface tension (Kruss tensiometer K12, ring method). The data set is classed as physicochemical. The conditions noted are these: for surface tension: measurement solutions in deionised water, 20° C. As for the experimental part: • Instrument: Kruss tensiometer (model K12) • Temperature of the measurement solutions: 20° C. • Measurement module employed: ring • Concentration of the measurement solutions: about 0.5 to 3.0 g/l in deionised water
Further details on the method are given in the European Commission publication: Classification, Packaging and Labelling of Dangerous Substances in the European Union, Part II-Test Methods, Annex V-Methods for Determining the Physical-Chemical Properties, the Toxicity and the Ecotoxicity, Part A, Surface Tension (A.5), January 1997, pages 51-57, and also the OECD Guideline for the Testing of Chemicals, Section 1, Physical-Chemical Properties, method 115, pages 1-7, adopted: 27.07.95, the contents of which in this respect are expressly part of the disclosure content of the present application.

Usually surface tension stands for the force per length acting along the surface. The molecule `O=S(=O)([O-])CCCCCCCCCCCSCCC(F)(F)F.[Na+]` [CF3—CH2—CH2—S—(CH2)11—SO3Na] had a surface tension (Concentration: 100.7 mg/100 ml) of 38.55 mN/m.

Take `O=C(O)CCCCCCCCCCSCCC(F)(F)F` [Example 5c, 11-(3,3,3-Trifluoropropylsulfanyl)undecanoic acid]: the “Surface tension of an aqueous solution of the sodium salt” value (at 0.016 mol/l, sodium salt (2 eq of NaOH/eq of carboxylic acid)) amounted to 33.4 mN/m.

As to “11-(S-trifluoromethyl)mercaptoundecane-1-sulfonic acid sodium salt [CF3—S—(CH2)11—SO3Na]”, where the note is “concentration: 99.8 mg/100 ml”, the surface tension turned out to be 31.29 mN/m.
